Reference: the supplement of paper PMC10307832

What was measured:
Assay in all cases: relative viability (nuclei count vs DMSO), 5 days (fraction); higher = more cells survive
AGI-6780 + Crizotinib = compound: O=C(Nc1cccc(C(F)(F)F)c1)Nc1cc(S(=O)(=O)NC2CC2)ccc1-c1ccsc1 [AGI-6780] + C[C@@H](Oc1cc(-c2cnn(C3CCNCC3)c2)cnc1N)c1c(Cl)ccc(F)c1Cl [Crizotinib] (partner 1 µM)
Procedure, shortened: (§1)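 Relative viability was taken as the ratio of nuclei in treated wells to nuclei in vehicle wells. Lung cancer cell lines in 1536-well plates received compounds by pin tool one day after seeding, either one drug alone or a fixed anchor-drug dose plus five library-drug doses (not always all listed) in √10 steps. Nuclei were counted on 4× images after 5 days of treatment, and values are medians of duplicate plates.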

AGI-6780 + Alpelisib = compound: O=C(Nc1cccc(C(F)(F)F)c1)Nc1cc(S(=O)(=O)NC2CC2)ccc1-c1ccsc1 [AGI-6780] + Cc1nc(NC(=O)N2CCC[C@H]2C(N)=O)sc1-c1ccnc(C(C)(C)C(F)(F)F)c1 [Alpelisib] (partner 2 µM)
Procedure, shortened: as §1

AGI-6780 + Lapatinib = compound: O=C(Nc1cccc(C(F)(F)F)c1)Nc1cc(S(=O)(=O)NC2CC2)ccc1-c1ccsc1 [AGI-6780] + CS(=O)(=O)CCNCc1ccc(-c2ccc3ncnc(Nc4ccc(OCc5cccc(F)c5)c(Cl)c4)c3c2)o1 [Lapatinib] (partner 2 µM)
Procedure, shortened: as §1

AGI-6780 + Foretinib = compound: O=C(Nc1cccc(C(F)(F)F)c1)Nc1cc(S(=O)(=O)NC2CC2)ccc1-c1ccsc1 [AGI-6780] + COc1cc2c(Oc3ccc(NC(=O)C4(C(=O)Nc5ccc(F)cc5)CC4)cc3F)ccnc2cc1OCCCN1CCOCC1 [Foretinib] (partner 0.25 µM)
Procedure, shortened: as §1

AGI-6780 + Bortezomib = compound: O=C(Nc1cccc(C(F)(F)F)c1)Nc1cc(S(=O)(=O)NC2CC2)ccc1-c1ccsc1 [AGI-6780] + CC(C)C[C@H](NC(=O)[C@H](Cc1ccccc1)NC(=O)c1cnccn1)B(O)O [Bortezomib] (partner 0.002 µM)
Procedure, shortened: as §1

AGI-6780 + Navitoclax = compound: O=C(Nc1cccc(C(F)(F)F)c1)Nc1cc(S(=O)(=O)NC2CC2)ccc1-c1ccsc1 [AGI-6780] + CC1(C)CCC(c2ccc(Cl)cc2)=C(CN2CCN(c3ccc(C(=O)NS(=O)(=O)c4ccc(N[C@H](CCN5CCOCC5)CSc5ccccc5)c(S(=O)(=O)C(F)(F)F)c4)cc3)CC2)C1 [Navitoclax] (partner 0.5 µM)
Procedure, shortened: as §1

AGI-6780 + Linsitinib = compound: O=C(Nc1cccc(C(F)(F)F)c1)Nc1cc(S(=O)(=O)NC2CC2)ccc1-c1ccsc1 [AGI-6780] + C[C@]1(O)C[C@@H](c2nc(-c3ccc4ccc(-c5ccccc5)nc4c3)c3c(N)nccn32)C1 [Linsitinib] (partner 1 µM)
Procedure, shortened: as §1

AGI-6780 + Olaparib = compound: O=C(Nc1cccc(C(F)(F)F)c1)Nc1cc(S(=O)(=O)NC2CC2)ccc1-c1ccsc1 [AGI-6780] + O=C(c1cc(Cc2n[nH]c(=O)c3ccccc23)ccc1F)N1CCN(C(=O)C2CC2)CC1 [Olaparib] (partner 8 µM)
Procedure, shortened: as §1

AGI-6780 + Pictilisib = compound: O=C(Nc1cccc(C(F)(F)F)c1)Nc1cc(S(=O)(=O)NC2CC2)ccc1-c1ccsc1 [AGI-6780] + CS(=O)(=O)N1CCN(Cc2cc3nc(-c4cccc5[nH]ncc45)nc(N4CCOCC4)c3s2)CC1 [Pictilisib] (partner 1 µM)
Procedure, shortened: as §1

AGI-6780 = compound: O=C(Nc1cccc(C(F)(F)F)c1)Nc1cc(S(=O)(=O)NC2CC2)ccc1-c1ccsc1 [AGI-6780]
Procedure, shortened: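 Acceptance criteria were a control CV below 25% and at least one doubling per plate. Lung cancer cell lines in 1536-well plates got five library-drug doses (not always all listed) √10 apart by pinning and were left 5 days with no medium change. Viability divides treated-well nuclei by vehicle-well nuclei and is the median across plates. Nuclei were counted by MetaXpress from 4× Hoechst images.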

AGI-6780 + Tozasertib = compound: O=C(Nc1cccc(C(F)(F)F)c1)Nc1cc(S(=O)(=O)NC2CC2)ccc1-c1ccsc1 [AGI-6780] + Cc1cc(Nc2cc(N3CCN(C)CC3)nc(Sc3ccc(NC(=O)C4CC4)cc3)n2)n[nH]1 [Tozasertib] (partner 0.1 µM)
Procedure, shortened: as §1

AGI-6780 + Dasatinib = compound: O=C(Nc1cccc(C(F)(F)F)c1)Nc1cc(S(=O)(=O)NC2CC2)ccc1-c1ccsc1 [AGI-6780] + Cc1nc(Nc2ncc(C(=O)Nc3c(C)cccc3Cl)s2)cc(N2CCN(CCO)CC2)n1 [Dasatinib] (partner 0.075 µM)
Procedure, shortened: as §1

AGI-6780 + Phenformin = compound: O=C(Nc1cccc(C(F)(F)F)c1)Nc1cc(S(=O)(=O)NC2CC2)ccc1-c1ccsc1 [AGI-6780] + N=C(N)NC(=N)NCCc1ccccc1 [Phenformin] (partner 250 µM)
Procedure, shortened: as §1

AGI-6780 + OSI-027 = compound: O=C(Nc1cccc(C(F)(F)F)c1)Nc1cc(S(=O)(=O)NC2CC2)ccc1-c1ccsc1 [AGI-6780] + COc1cccc2cc(-c3nc([C@H]4CC[C@H](C(=O)O)CC4)n4ncnc(N)c34)[nH]c12 [OSI-027] (partner 0.5 µM)
Procedure, shortened: as §1

AGI-6780 + Luminespib = compound: O=C(Nc1cccc(C(F)(F)F)c1)Nc1cc(S(=O)(=O)NC2CC2)ccc1-c1ccsc1 [AGI-6780] + CCNC(=O)c1noc(-c2cc(C(C)C)c(O)cc2O)c1-c1ccc(CN2CCOCC2)cc1 [Luminespib] (partner 0.01 µM)
Procedure, shortened: as §1

EBC-1
relative viability (AGI-6780 + Crizotinib; first compound 0.08 µM): 0.199 | relative viability (AGI-6780 + Crizotinib; first compound 0.253 µM): 0.184 | relative viability (AGI-6780 + Crizotinib; first compound 0.8 µM): 0.186 | relative viability (AGI-6780 + Crizotinib; first compound 2.53 µM): 0.175 | relative viability (AGI-6780 + Crizotinib; first compound 8 µM): 0.183 | relative viability (AGI-6780 + Alpelisib; first compound 0.08 µM): 0.965 | relative viability (AGI-6780 + Alpelisib; first compound 0.253 µM): 0.923 | relative viability (AGI-6780 + Alpelisib; first compound 0.8 µM): 0.798 | relative viability (AGI-6780 + Alpelisib; first compound 2.53 µM): 0.783 | relative viability (AGI-6780 + Alpelisib; first compound 8 µM): 0.841 | relative viability (AGI-6780 + Lapatinib; first compound 0.08 µM): 0.224 | relative viability (AGI-6780 + Lapatinib; first compound 0.253 µM): 0.21 | relative viability (AGI-6780 + Lapatinib; first compound 0.8 µM): 0.198 | relative viability (AGI-6780 + Lapatinib; first compound 2.53 µM): 0.202 | relative viability (AGI-6780 + Lapatinib; first compound 8 µM): 0.201 | relative viability (AGI-6780 + Foretinib; first compound 0.08 µM): 0.104 | relative viability (AGI-6780 + Foretinib; first compound 0.253 µM): 0.105 | relative viability (AGI-6780 + Foretinib; first compound 0.8 µM): 0.106 | relative viability (AGI-6780 + Foretinib; first compound 2.53 µM): 0.11 | relative viability (AGI-6780 + Foretinib; first compound 8 µM): 0.104 | relative viability (AGI-6780 + Bortezomib; first compound 0.08 µM): 0.781 | relative viability (AGI-6780 + Bortezomib; first compound 0.253 µM): 0.566 | relative viability (AGI-6780 + Bortezomib; first compound 0.8 µM): 0.485 | relative viability (AGI-6780 + Bortezomib; first compound 2.53 µM): 0.601 | relative viability (AGI-6780 + Bortezomib; first compound 8 µM): 0.529 | relative viability (AGI-6780 + Navitoclax; first compound 0.08 µM): 0.407 | relative viability (AGI-6780 + Navitoclax; first compound 0.253 µM): 0.429 | relative viability (AGI-6780 + Navitoclax; first compound 0.8 µM): 0.365 | relative viability (AGI-6780 + Navitoclax; first compound 2.53 µM): 0.512 | relative viability (AGI-6780 + Navitoclax; first compound 8 µM): 0.38 | relative viability (AGI-6780 + Linsitinib; first compound 0.08 µM): 0.861 | relative viability (AGI-6780 + Linsitinib; first compound 0.253 µM): 1.13 | relative viability (AGI-6780 + Linsitinib; first compound 0.8 µM): 0.885 | relative viability (AGI-6780 + Linsitinib; first compound 2.53 µM): 0.836 | relative viability (AGI-6780 + Linsitinib; first compound 8 µM): 0.94 | relative viability (AGI-6780 + Olaparib; first compound 0.08 µM): 0.788 | relative viability (AGI-6780 + Olaparib; first compound 0.253 µM): 0.789 | relative viability (AGI-6780 + Olaparib; first compound 0.8 µM): 0.664 | relative viability (AGI-6780 + Olaparib; first compound 2.53 µM): 0.655 | relative viability (AGI-6780 + Olaparib; first compound 8 µM): 0.747 | relative viability (AGI-6780 + Pictilisib; first compound 0.08 µM): 0.388 | relative viability (AGI-6780 + Pictilisib; first compound 0.253 µM): 0.337 | relative viability (AGI-6780 + Pictilisib; first compound 0.8 µM): 0.343 | relative viability (AGI-6780 + Pictilisib; first compound 2.53 µM): 0.379 | relative viability (AGI-6780 + Pictilisib; first compound 8 µM): 0.347 | relative viability (AGI-6780; 0.08 µM): 1.07 | relative viability (AGI-6780; 0.253 µM): 1.04 | relative viability (AGI-6780; 0.8 µM): 0.985 | relative viability (AGI-6780; 2.53 µM): 1 | relative viability (AGI-6780; 8 µM): 1

NCI-H1623
relative viability (AGI-6780 + Tozasertib; first compound 0.08 µM): 0.47 | relative viability (AGI-6780 + Tozasertib; first compound 0.253 µM): 0.519 | relative viability (AGI-6780 + Tozasertib; first compound 0.8 µM): 0.474 | relative viability (AGI-6780 + Tozasertib; first compound 2.53 µM): 0.391 | relative viability (AGI-6780 + Tozasertib; first compound 8 µM): 0.409 | relative viability (AGI-6780 + Dasatinib; first compound 0.08 µM): 0.484 | relative viability (AGI-6780 + Dasatinib; first compound 0.253 µM): 0.553 | relative viability (AGI-6780 + Dasatinib; first compound 0.8 µM): 0.619 | relative viability (AGI-6780 + Dasatinib; first compound 2.53 µM): 0.477 | relative viability (AGI-6780 + Dasatinib; first compound 8 µM): 0.489 | relative viability (AGI-6780 + Foretinib; first compound 0.08 µM): 0.789 | relative viability (AGI-6780 + Foretinib; first compound 0.253 µM): 0.856 | relative viability (AGI-6780 + Foretinib; first compound 0.8 µM): 0.976 | relative viability (AGI-6780 + Foretinib; first compound 2.53 µM): 0.721 | relative viability (AGI-6780 + Foretinib; first compound 8 µM): 0.887 | relative viability (AGI-6780 + Phenformin; first compound 0.08 µM): 0.561 | relative viability (AGI-6780 + Phenformin; first compound 0.253 µM): 0.604 | relative viability (AGI-6780 + Phenformin; first compound 0.8 µM): 0.609 | relative viability (AGI-6780 + Phenformin; first compound 2.53 µM): 0.508 | relative viability (AGI-6780 + Phenformin; first compound 8 µM): 0.518 | relative viability (AGI-6780 + OSI-027; first compound 0.08 µM): 0.537 | relative viability (AGI-6780 + OSI-027; first compound 0.253 µM): 0.453 | relative viability (AGI-6780 + OSI-027; first compound 0.8 µM): 0.454 | relative viability (AGI-6780 + OSI-027; first compound 2.53 µM): 0.374 | relative viability (AGI-6780 + OSI-027; first compound 8 µM): 0.396 | relative viability (AGI-6780 + Luminespib; first compound 0.08 µM): 0.489 | relative viability (AGI-6780 + Luminespib; first compound 0.253 µM): 0.483 | relative viability (AGI-6780 + Luminespib; first compound 0.8 µM): 0.575 | relative viability (AGI-6780 + Luminespib; first compound 2.53 µM): 0.381 | relative viability (AGI-6780 + Luminespib; first compound 8 µM): 0.463 | relative viability (AGI-6780; 0.08 µM): 0.967 | relative viability (AGI-6780; 0.253 µM): 0.953 | relative viability (AGI-6780; 0.8 µM): 0.977 | relative viability (AGI-6780; 2.53 µM): 0.681 | relative viability (AGI-6780; 8 µM): 0.949
